Data reported in patent US6723720B2, “Pesticidal triazine-derivatives” (Novartis Animal Health US, Inc., priority 1999, dated 2004).

melting point: 159 to 160 °C
Compound: Fc1cccc(F)c1-c1cnnc(-c2ccc(-c3ccc(OC(F)(F)F)cc3)cc2)n1 [Example 1.6, 5-(2,6-Difluorophenyl)-3-(4′-trifluoromethoxybiphenyl-4-yl)-[1,2,4]triazine]
